Each block holds one compound with its values, some of them ahead of it.
Assay: solvent given as SMILES

emission maximum (in CCCCCC): 615 nm
emission maximum (in CCCCCCCCO): 623 nm
emission maximum (in CCOC(C)=O): 617 nm
emission maximum (in CN(C)C=O): 624 nm
Structure (SMILES): CC1=CC(C)=[N+]2C1=Cc1c3ccccc3c(C#Cc3ccc(F)cc3)n1[B-]2(F)F

emission maximum (in ClCCl): 405 nm
Structure (SMILES): CC(C)(C)c1ccc(-c2ccc3c(-c4ccc(C(C)(C)C)c5ccccc45)cc4c5cc(-c6ccc(C(C)(C)C)c7ccccc67)ccc5c(-c5ccc(C(C)(C)C)c6ccccc56)cc4c3c2)c2ccccc12

emission maximum (in C1CCCCC1): 345 nm
Structure (SMILES): CCCC1(CCC)c2ccccc2-c2ccc(-c3ccc(OC)cc3)cc21

emission maximum (in C1CCCCC1): 407 nm
emission maximum (in CC#N): 435 nm
emission maximum (in CO): 433 nm
emission maximum (in ClCCl): 467 nm
emission maximum (in O): 440 nm
Structure (SMILES): Oc1ccc2ccccc2c1-c1nc(-c2ccccc2)c2ccccn12

Structure (SMILES): COc1cc2c3cc(OC)c(OC)cc3c3cc4c(C)cc(=O)oc4cc3c2cc1OC
emission maximum (in C1CCOC1): 489 nm
emission maximum (in CO): 556 nm
emission maximum (in CS(C)=O): 519 nm
emission maximum (in Cc1ccccc1): 463 nm
emission maximum (in ClC(Cl)Cl): 491 nm

emission maximum (in c1ccccc1): 444 nm
Structure (SMILES): COc1ccc(-c2nc3ccccc3oc2=O)cc1

emission maximum (in ClCCl): 411 nm
Structure (SMILES): c1cc(-c2ccc3sc4ccccc4c3c2)cc(-c2cc(-c3cccc(-c4ccc5sc6ccccc6c5c4)c3)ncn2)c1

emission maximum (in CC1CCCO1): 484 nm
Structure (SMILES): O=c1cc2c(Br)c(O)c3cccc4ccc(o1)c2c43

Structure (SMILES): Cn1c(=O)c(/N=N/c2cc(S(=O)(=O)O)ccc2C(=O)O)c(O)c2ccccc21
emission maximum (in C1CCOC1): 523 nm
emission maximum (in CC(C)=O): 538 nm
emission maximum (in CCOC(C)=O): 528 nm
emission maximum (in CO): 532 nm
emission maximum (in CS(C)=O): 486 nm
emission maximum (in Cc1ccccc1): 509 nm
emission maximum (in ClCCl): 516 nm
emission maximum (in O): 553 nm

emission maximum (in C1CCOC1): 367.4 nm
Structure (SMILES): CCCCCCCCCCCCn1c(-c2cc(-c3nc4ccccc4n3CCCCCCCCCCCC)cc(-c3nc4ccccc4n3CCCCCCCCCCCC)c2)nc2ccccc21

emission maximum (in C1CCCCC1): 391 nm
emission maximum (in C1CCOC1): 392 nm
emission maximum (in C1COCCO1): 392 nm
emission maximum (in CC#N): 390 nm
emission maximum (in CCO): 389 nm
emission maximum (in CN(C)C=O): 392 nm
emission maximum (in CO): 389 nm
emission maximum (in COCCOC): 392 nm
emission maximum (in CS(C)=O): 395 nm
emission maximum (in O): 390 nm
emission maximum (in OCC(O)CO): 393 nm
emission maximum (in OCCO): 392 nm
Structure (SMILES): CN(C)c1c2ccccc2cc2ccccc12

Structure (SMILES): COC(=O)/C(C#N)=c1\s/c(=c2/s/c(=C(/C#N)C(=O)OC)c3cc(-c4ccc(C)cc4)sc23)c2sc(-c3ccc(C)cc3)cc12
emission maximum (in Cc1ccccc1): 652 nm

emission maximum (in ClCCl): 418 nm
Structure (SMILES): COc1ccc(C2=Cc3ccccc3[Si]2(c2ccccc2)c2ccccc2)cc1

emission maximum (in CCO): 412 nm
Structure (SMILES): C#Cc1ccc2cc(/C=C/C(=O)OCC)c(=O)oc2c1

emission maximum (in C1CCOC1): 720 nm
emission maximum (in CS(C)=O): 748 nm
emission maximum (in ClCCl): 721 nm
Structure (SMILES): COc1cc(OC)cc(C2=C3C(C)=C(I)C(/C=C/c4c[nH]c5ccc([N+](=O)[O-])cc45)=[N+]3[B-](F)(F)n3c(/C=C/c4c[nH]c5ccc([N+](=O)[O-])cc45)c(I)c(C)c32)c1

emission maximum (in ClC(Cl)Cl): 422 nm
Structure (SMILES): c1ccc2c3c(ccc2c1)C1(c2cc(-c4ccc5ccc6cccc7ccc4c5c67)ccc2-c2ccc(-c4ccc5ccc6cccc7ccc4c5c67)cc21)c1ccc2ccccc2c1O3

emission maximum (in C1CCCCC1): 297 nm
emission maximum (in CC#N): 322 nm
emission maximum (in CCO): 324 nm
emission maximum (in CCOC(C)=O): 318 nm
emission maximum (in O): 328 nm
Structure (SMILES): COC(=O)c1nc(-c2ccccc2)oc1C

Structure (SMILES): CN(C)c1ccc(C2=Nc3scc[n+]3[B-](F)(F)O2)cc1
emission maximum (in C1CCOC1): 454 nm
emission maximum (in CC#N): 469 nm
emission maximum (in Cc1ccccc1): 439 nm
emission maximum (in ClCCl): 453 nm

Structure (SMILES): CC(C)(C)c1ccc2c(c1)c1cc(C(C)(C)C)ccc1n2-c1ccc(-n2c3ccc(C(C)(C)C)cc3c3cc(C(C)(C)C)ccc32)c(-c2nccnc2C#N)c1
emission maximum (in Cc1ccccc1): 503 nm
emission maximum (in c1cc(-n2c3ccccc3c3ccccc32)cc(-n2c3ccccc3c3ccccc32)c1): 493 nm

Structure (SMILES): Cc1cc2cc(N3c4ccccc4Oc4ccccc43)ccc2c(=O)o1
emission maximum (in Cc1ccccc1): 540 nm

emission maximum (in CCO): 648 nm
emission maximum (in CS(C)=O): 604 nm
emission maximum (in O): 636 nm
Structure (SMILES): CC1(C)C(/C=C/c2cc3ccc(O)cc3oc2=O)=[N+](CCCS(=O)(=O)[O-])c2ccc(S(=O)(=O)O)cc21

Structure (SMILES): CNC1=C2C=CC=[N+]2[B-](F)(F)n2cccc21
emission maximum (in C1CCCCC1): 463 nm
emission maximum (in CC(C)=O): 441.5 nm
emission maximum (in CCO): 439 nm
emission maximum (in CCOC(C)=O): 444.5 nm
emission maximum (in CO): 440 nm
emission maximum (in OCC(F)(F)F): 449 nm

emission maximum (in O): 350 nm
Structure (SMILES): [NH3+]C(Cc1c[nH]c2ccccc12)C(=O)[O-] (configuration not stated)

emission maximum (in C1COCCO1): 544 nm
Structure (SMILES): COC(=O)c1ccc(/C=C2\C=C(c3ccccc3)NC2=O)cc1

emission maximum (in C1CCOC1): 731 nm
Structure (SMILES): CC(C)(C)c1cc2c3c(c1)-c1cccc4c1N(B3N1c3ccccc3Sc3cccc-2c31)c1ccccc1S4

emission maximum (in ClCCl): 412 nm
Structure (SMILES): CCn1c2ccc(/C=C(\C#N)c3ccccc3)cc2c2cc(/C=C(\C#N)c3ccccc3)ccc21

emission maximum (in ClCCl): 569 nm
Structure (SMILES): CCCCCCCCCCCCCCCCCCOC(=O)/C=C/C1=CC2=C(c3c(C)cc(C)cc3C)c3cccn3[B-](F)(F)[N+]2=C1

emission maximum (in ClCCl): 526 nm
Structure (SMILES): CCCCCCCCCCCCN1C(=O)c2c(c3ccc4cc(-c5ccc(Cl)cc5)c(OC)cc4c3c3c2ccc2cc(-c4ccc(Cl)cc4)c(OC)cc23)C1=O

Structure (SMILES): CCC1=C(C)C2=C(C)c3c(C)c(-c4csc(N5CCOCC5)n4)c(C)n3[B-](F)(F)[N+]2=C1C
emission maximum (in C1CCOC1): 618 nm
emission maximum (in C1COCCO1): 606 nm
emission maximum (in CC#N): 543 nm
emission maximum (in CC(C)O): 538 nm
emission maximum (in CCO): 539 nm
emission maximum (in CCOC(C)=O): 549 nm
emission maximum (in CN(C)C=O): 539 nm
emission maximum (in CO): 540 nm
emission maximum (in CS(C)=O): 539 nm
emission maximum (in Cc1ccccc1): 597 nm
emission maximum (in ClC(Cl)Cl): 603 nm
emission maximum (in ClCCl): 537 nm

Structure (SMILES): CC1(C)c2ccccc2N(c2cc3c4ccccc4n4c5ccccc5c(c2)c34)c2ccccc21
emission maximum (in C1CCCCC1): 416.92 nm
emission maximum (in C1CCOC1): 470.91 nm
emission maximum (in Cc1ccccc1): 439 nm

emission maximum (in ClCCl): 545 nm
Structure (SMILES): Cc1c(C(=O)c2ccc(C(F)(F)F)cc2)c2ccc3cccc4c5cccc6ccc1c(c65)c2c34

emission maximum (in ClCCl): 489 nm
Structure (SMILES): c1ccc(N(c2ccccc2)c2ccc(-c3ccc(-c4cc(-c5ccccn5)nc(-c5ccccn5)c4)cc3)cc2)cc1

Structure (SMILES): CN(C)c1ccc(C2=Cc3cc(Cl)nc[n+]3[B-](F)(F)O2)cc1
emission maximum (in C1CCOC1): 532 nm
emission maximum (in CC#N): 565 nm
emission maximum (in CCCCCC): 456 nm
emission maximum (in Cc1ccccc1): 494 nm
emission maximum (in ClC(Cl)Cl): 512 nm
emission maximum (in ClCCl): 529 nm

emission maximum (in CC#N): 663 nm
Structure (SMILES): COC(=O)/C=C/c1sc(-c2ccc(N(C)C)s2)c(-c2cn(C)c3ccccc23)c1O

emission maximum (in C1CCCCC1): 395 nm
emission maximum (in CC#N): 401 nm
emission maximum (in CCO): 400 nm
emission maximum (in ClCCl): 400 nm
Structure (SMILES): [BH3-][P+]1(c2ccccc2)c2ccccc2-c2sc3ccccc3c21 (configuration not stated)

emission maximum (in CC#N): 605 nm
emission maximum (in CS(C)=O): 614 nm
emission maximum (in ClC(Cl)Cl): 607 nm
Structure (SMILES): C#CCn1c2ccccc2c2cc(/C=C/c3cc(C)c4n3[B-](F)(F)[N+]3=C(C)C=C(C)C3=C4c3ccc(I)cc3)ccc21

emission maximum (in ClC(Cl)Cl): 620 nm
Structure (SMILES): CCCCN1c2ccc(/C=C/c3cc(=O)oc4cc(C)ccc34)cc2Sc2cc(/C=C/c3cc(=O)oc4cc(C)ccc34)ccc21

emission maximum (in C1CCCCC1): 410 nm
emission maximum (in CC#N): 411 nm
Structure (SMILES): C[Si](C)(C)[Si](C)(C)c1cccc2cc3ccccc3cc12

emission maximum (in CC#N): 583.94 nm
Structure (SMILES): COc1ccc(-c2nc3ccccc3nc2/C=C/N2CCCC2)s1

Structure (SMILES): CN(C)c1ccc(C2=Cc3ccc4ccccc4[n+]3[B-](F)(F)O2)cc1
emission maximum (in C1CCOC1): 540 nm
emission maximum (in C1COCCO1): 516 nm
emission maximum (in CC1CCCCC1): 478 nm
emission maximum (in CC#N): 573 nm
emission maximum (in CCOC(C)=O): 534 nm
emission maximum (in CCOCC): 509 nm
emission maximum (in CN(C)C=O): 581 nm
emission maximum (in CO): 564 nm
emission maximum (in COC(C)=O): 562 nm
emission maximum (in ClC(Cl)Cl): 521 nm

emission maximum (in ClC(Cl)Cl): 661 nm
Structure (SMILES): CCCCCCCCOc1ccc(-c2c3c4n(c(-c5ccc(OCCCCCCCC)cc5)c3c3n2[B-](F)(F)[n+]2ccccc2N=3)[B-](F)(F)[n+]2ccccc2N=4)cc1

Structure (SMILES): CC1(C)c2ccccc2N(c2ccc(C(=C(C#N)C#N)c3ccc(N4c5ccccc5C(C)(C)c5ccccc54)cc3)cc2)c2ccccc21
emission maximum (in Cc1ccccc1): 649 nm

emission maximum (in CS(C)=O): 558 nm
emission maximum (in ClCCl): 542 nm
Structure (SMILES): CCN(CC)c1ccc2c(c1)oc(=O)c1c(=O)oc3c(C)c4oc(=O)c5c(=O)oc6cc(N(CC)CC)ccc6c5c4cc3c12

emission maximum (in ClCCl): 513 nm
Structure (SMILES): COc1ccc(N(c2ccccc2)c2ccc3ccc4c(N(c5ccccc5)c5ccc(OC)cc5)ccc5ccc2c3c54)cc1

emission maximum (in ClCCl): 502 nm
Structure (SMILES): Cc1ccc2nc3cc4c(cc3c(-c3ccccc3)c2c1)[Si](C)(C)O[Si](C)(C)O[Si]4(C)C

emission maximum (in C1CCCCC1): 537 nm
emission maximum (in CC#N): 578 nm
Structure (SMILES): COc1cc(OC)c2c(c1)C(=O)c1ccc(OC)cc1-2

emission maximum (in ClCCl): 509 nm
Structure (SMILES): c1ccc(N2N=C(c3c4ccccc4cc4ccccc34)CC2c2ccc3ccc4cccc5ccc2c3c45)cc1 (configuration not stated)

emission maximum (in C1CCOC1): 408 nm
Structure (SMILES): c1ccc(-n2c3c(c4c2-c2ccccc2C42c4ccccc4-c4ccccc42)C2(c4ccccc4-c4ccccc42)c2ccccc2-3)cc1

Structure (SMILES): O=C1NC(=O)c2c1c1c3ccccc3[nH]c1c1[nH]c3ccccc3c21
emission maximum (in C1CCOC1): 475 nm
emission maximum (in CC#N): 500 nm
emission maximum (in CC(C)OC(C)C): 450 nm
emission maximum (in CCCCOCCCC): 461 nm
emission maximum (in CCO): 550 nm
emission maximum (in CCOC(C)=O): 473 nm
emission maximum (in CN(C)C=O): 503 nm
emission maximum (in Cc1ccccc1): 465 nm
emission maximum (in ClCCl): 492 nm

Structure (SMILES): CC1(C)c2ccccc2N(c2ccc(-c3ccc4c(c3)c3cc(-c5ccc(N6c7ccccc7C(C)(C)c7ccccc76)cc5)ccc3c3nc(C#N)c(C#N)nc43)cc2)c2ccccc21
emission maximum (in C1COCCO1): 668.71 nm
emission maximum (in CCCCCC): 507.36 nm
emission maximum (in Cc1ccccc1): 612 nm
emission maximum (in O=P(c1ccccc1)(c1ccccc1)c1cccc(-c2cc(-n3c4ccccc4c4ccccc43)cc(-n3c4ccccc4c4ccccc43)c2)n1): 594 nm

Reference: the Deep4Chem optical property database
